Results from article PMC10600881 (ACS Omega, 2023).
Values after ≈ are worked out from the molar mass of the structure shown. Like-named read-outs stand apart in the source and are kept apart here.

Tests used:
[1] = test system: P. aeruginosa (ATCC 29853); experiment: Broth microdilution assay, MIC/MBC; format: cell-based; conditions: for ratio (MBC/MIC): P. aeruginosa (ATCC 29853); for bactericidal or bacteriostatic effect / fold more efficient than amoxicillin: P. aeruginosa; for bactericidal or bacteriostatic effect: MBC/MIC ≤ 4 = bactericidal; for MBC / MIC: Pseudomonas aeruginosa; for fold more efficient than amoxicillin: from MICs
E. coli (ATCC25922) = experiment: Broth microdilution assay, MIC; format: cell-based; conditions: Escherichia coli, ATCC25922, read-out: Minimum Inhibitory Concentration
[2] = molecular target: T1, M. tuberculosis DHFR enzyme (Mycobacterium tuberculosis, UniProt P9WNX1); experiment: biochemical
T1 sequence (P9WNX1 1-161): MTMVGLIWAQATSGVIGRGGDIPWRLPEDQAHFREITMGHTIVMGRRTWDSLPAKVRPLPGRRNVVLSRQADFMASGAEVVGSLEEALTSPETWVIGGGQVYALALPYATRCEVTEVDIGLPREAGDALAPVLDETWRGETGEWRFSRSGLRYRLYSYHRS

C. albicans (ATCC 10231) = experiment: Broth microdilution assay, antifungal MIC/MFC; format: cell-based, Candida albicans; conditions: for ratio (MFC/MIC): C. albicans (ATCC 10231); for MFC / MIC: Candida albicans; for fungicidal or fungistatic behavior: C. albicans, MFC/MIC > 4 = fungistatic
B. subtilis (ATCC 9372) = experiment: Broth microdilution assay, MIC; format: cell-based; conditions: Bacillus subtilis, ATCC9372, read-out: Minimum Inhibitory Concentration
S. aureus (ATCC 25923) = experiment: Broth microdilution assay, MIC; format: cell-based; conditions: Staphylococcus aureus, ATCC25923, read-out: Minimum Inhibitory Concentration
[3] = test system: M. tuberculosis (RCMB 010126); experiment: Microplate alamar blue assay; format: cell-based, Mycobacterium tuberculosis; conditions: MABA
[4] = ATCC29853, read-out: Minimum Inhibitory Concentration
[5] = ATCC10231, read-out: Minimum Inhibitory Concentration
[6] = Mycobacterium tuberculosis, RCMB010126, sensitive Mycobacterium tuberculosis (RCMB 010126)
[7] = sensitive Mycobacterium tuberculosis (RCMB 010126)

Row | Compound | ratio (MBC/MIC) [1] | bactericidal or bacteriostatic effect [1] | MBC ([1]; ATCC29853) [µg/mL] | MIC ([1]; ATCC29853) [µg/mL] | MIC [1, 4] [µg/mL] | MIC (E. coli (ATCC25922)) [µg/mL] | IC50 [2] [µM] | ratio (MFC/MIC) (C. albicans (ATCC 10231)) | MFC (C. albicans (ATCC 10231); ATCC10231) [µg/mL] | MIC (C. albicans (ATCC 10231); ATCC10231) [µg/mL] | MIC (C. albicans (ATCC 10231); [5]) [µg/mL] | MIC (B. subtilis (ATCC 9372)) [µg/mL] | MIC (S. aureus (ATCC 25923)) [µg/mL] | fold more efficient than amoxicillin [1] | MIC [3, 6] [µg/mL] | MIC [3, 7] [µg/mL] | fungicidal or fungistatic behavior (C. albicans (ATCC 10231))
1 | COc1ccc(OC)c(C2CC(c3cccs3)=NN2C2=NC(=O)CCS2)c1 (stereo not drawn) [10b, 5,6-Dihydro-2-(4,5-dihydro-5-(2,5-dimethoxyphenyl)-3-(thiophen-2-yl)pyrazol-1-yl)-1,3-thiazin-4-one] | 4 | bactericidal | 250 (≈ 623 µM) | 62.2 (≈ 155 µM) | 62.2 (≈ 155 µM) | 125 (≈ 311 µM) | 10.6 ± 0.31 | 2 | 31.2 (≈ 77.8 µM) | 15.6 (≈ 38.9 µM) | 15.6 (≈ 38.9 µM) | 62.5 (≈ 156 µM) | 250 (≈ 623 µM) | – | – | – | –
2 | COc1ccc(C=C2SC(N3N=C(c4cccs4)CC3c3cc(OC)ccc3OC)=NC2=O)cc1 (stereo not drawn) [8b, 5-(4-Methoxybenzylidene)-2-(4,5-dihydro-5-(2,5-dimethoxyphenyl)-3-(thiophen-2-yl)pyrazol-1-yl)thiazol-4(5H)-one] | 8 | – | 500 (≈ 989 µM) | 62.2 (≈ 123 µM) | 62.2 (≈ 123 µM) | > 500 | 18.5 ± 0.61 | 4 | 125 (≈ 247 µM) | 31.2 (≈ 61.8 µM) | 31.2 (≈ 61.8 µM) | 62.5 (≈ 124 µM) | 62.5 (≈ 124 µM) | – | – | – | –
3 | Brc1ccc(-c2csc(N3N=C(c4cccs4)CC3c3cccs3)n2)cc1 (stereo not drawn) [4c, 1-(4-(4-Bromophenyl)thiazol-2-yl)-4,5-dihydro-3,5-di(thiophen-2-yl)-1H-pyrazole] | 4 | bactericidal | 125 (≈ 265 µM) | 31.2 (≈ 66.1 µM) | 31.2 (≈ 66.1 µM) | > 500 | 4.21 ± 0.13 | 8 | 31.2 (≈ 66.1 µM) | 3.9 (≈ 8.25 µM) | 3.9 (≈ 8.25 µM) | 125 (≈ 265 µM) | 62.5 (≈ 132 µM) | ~16 fold | 0.12 to 1.95 (≈ 0.254 to 4.13 µM) | 0.12 (≈ 0.254 µM) | fungistatic
4 | COc1ccc(OC)c(C2CC(c3cccs3)=NN2C2=NC(=O)C(=C3C(=O)Nc4ccccc43)S2)c1 (stereo not drawn) [9b, 3-(2-(4,5-Dihydro-5-(2,5-dimethoxyphenyl)-3-(thiophen-2-yl)pyrazol-1-yl)-4-oxothiazol-5(4H)-ylidene)indolin-2-one] | 2 | bactericidal | 125 (≈ 242 µM) | 62.2 (≈ 120 µM) | 62.2 (≈ 120 µM) | 125 (≈ 242 µM) | 22.7 ± 0.55 | 16 | 500 (≈ 968 µM) | 31.2 (≈ 60.5 µM) | 31.2 (≈ 60.5 µM) | 125 (≈ 242 µM) | 62.5 (≈ 121 µM) | – | – | – | fungistatic
5 | COc1ccc(OC)c(C2CC(c3cccs3)=NN2c2nc(-c3ccccc3)cs2)c1 (stereo not drawn) [4b, 4,5-Dihydro-5-(2,5-dimethoxyphenyl)-1-(4-phenylthiazol-2-yl)-3-(thiophen-2-yl)-1H-pyrazole] | 16 | – | 250 (≈ 559 µM) | 15.6 (≈ 34.9 µM) | 15.6 (≈ 34.9 µM) | 125 (≈ 279 µM) | – | 8 | 500 (≈ 1120 µM) | 62.5 (≈ 140 µM) | 62.5 (≈ 140 µM) | 250 (≈ 559 µM) | 250 (≈ 559 µM) | approximately 32 fold | 31.2 (≈ 69.8 µM) | – | fungistatic
6 | COc1ccc(OC)c(C=C2SC(N3N=C(c4cccs4)CC3c3cccs3)=NC2=O)c1 (stereo not drawn) [8c, 5-(2,5-Dimethoxybenzylidene)-2-(4,5-dihydro-3,5-di(thiophen-2-yl)pyrazol-1-yl)thiazol-4(5H)-one] | 8 | – | 250 (≈ 519 µM) | 31.2 (≈ 64.9 µM) | 31.2 (≈ 64.9 µM) | 125 (≈ 260 µM) | – | 2 | 62.2 (≈ 129 µM) | 31.2 (≈ 64.9 µM) | 31.2 (≈ 64.9 µM) | 125 (≈ 260 µM) | 62.5 (≈ 130 µM) | ~16 fold | 7.81 (≈ 16.2 µM) | – | –
7 | COc1ccc(OC)c(C2CC(c3cccs3)=NN2C2=NC(=O)CS2)c1 (stereo not drawn) [6b, 2-(4,5-Dihydro-5-(2,5-dimethoxyphenyl)-3-(thiophen-2-yl)pyrazol-1-yl)thiazol-4(5H)-one] | 4 | bactericidal | 15.6 (≈ 40.3 µM) | 3.9 (≈ 10.1 µM) | 3.9 (≈ 10.1 µM) | 125 (≈ 323 µM) | 5.7 ± 0.28 | 4 | 15.6 (≈ 40.3 µM) | 3.9 (≈ 10.1 µM) | 3.9 (≈ 10.1 µM) | 125 (≈ 323 µM) | 62.5 (≈ 161 µM) | – | 0.12 to 1.95 (≈ 0.31 to 5.03 µM) | 0.12 (≈ 0.31 µM) | –
8 | c1ccc(-c2csc(N3N=C(c4cccs4)CC3c3cccs3)n2)cc1 (stereo not drawn) [4a, 4,5-Dihydro-1-(4-phenylthiazol-2-yl)-3,5-di(thiophen-2-yl)-1H-pyrazole] | 4 | bactericidal | 500 (≈ 1270 µM) | 125 (≈ 318 µM) | 125 (≈ 318 µM) | 125 (≈ 318 µM) | – | 4 | 500 (≈ 1270 µM) | 125 (≈ 318 µM) | 125 (≈ 318 µM) | 15.6 (≈ 39.7 µM) | 250 (≈ 635 µM) | – | 62.5 (≈ 159 µM) | – | –
9 | COc1ccc(OC)c(C2CC(c3cccs3)=NN2C(N)=S)c1 (stereo not drawn) [2b, 4,5-Dihydro-5-(2,5-dimethoxyphenyl)-3-(thiophen-2-yl)pyrazole-1-carbothioamide] | 8 | – | 500 (≈ 1440 µM) | 62.2 (≈ 179 µM) | 62.2 (≈ 179 µM) | 62.5 (≈ 180 µM) | – | 4 | 250 (≈ 719 µM) | 62.5 (≈ 180 µM) | 62.5 (≈ 180 µM) | 125 (≈ 360 µM) | 250 (≈ 719 µM) | – | 15.6 (≈ 44.9 µM) | – | –
